Reference: patent publication US7223769B2, “Pyrimidine compounds and their use as pesticides” (Sumitomo Chemical Company, Limited, priority 2002, dated 2007)

System: Frankliniella occidentalis (Western flower thrips)
Assay: Test Example 2: sprayed cucumber leaf, larvae of Frankliniella occidentalis set free, surviving pests counted
Format: in vivo
Conditions: 500 ppm spray solution, 20 ml/cup, cucumber first true leaf, thirty larvae set free, after seven days
Description: Ten parts of each of the present compounds (2), (4), (6), (7), (8), (11), (12), (14), (16), (17), (19) to (24), (26), (28), (29), (34), (36) to (38), and (40); white carbon containing 50 parts of polyoxyethylene alkyl ether sulfate ammonium salt; and […] of water were mixed and pulverized by the wet grinding method to give a formulation for each compound. The formulation of each present compound was diluted with water so that the active ingredient concentration came to 500 ppm to prepare a spray solution.
A polyethylene cup was seeded with cucumber and a plant was grown until the first true leaf was developed, to which the above spray solution was applied at a ratio of 20 ml/cup. After the chemical solution sprayed to the cucumber were dried, the first true leaf was cut off and placed on a filter paper (70 mm in diameter) impregnated with water in a polyethylene cup (110 mm in diameter). Thirty larvae of Frankliniella occidentalis (Western flower thrips) were set free on the first true leaf, which was covered with a polyethylene cup. After seven days, the number of surviving pests was examined.

Row | SMILES | number of surviving pests
1 | CC#CCOc1cc(OCC(C)(C)F)ncn1 [present compound (28), 4-(2-butynyloxy)-6-(2-fluoro-2-methylpropyloxy)pyrimidine] | 0
2 | CC#CCOc1cc(OC(CC)C(C)(C)C)ncn1 (stereo not drawn) [present compound (4), 4-(2-butynyloxy)-6-(1-ethyl-2,2-dimethylpropyloxy)pyrimidine] | 0
3 | CC#CCOc1cc(OC(C)C2(C)CC2)ncn1 (stereo not drawn) [present compound (8), 4-(2-butynyloxy)-6-[1-(1-methylcyclopropyl)ethyloxy]pyrimidine] | 0
4 | CC#CCOc1cc(OC(C)C2CCCC2)ncn1 (stereo not drawn) [present compound (26), 4-(2-butynyloxy)-6-(1-cyclopentylethyloxy)pyrimidine] | 0
5 | CC#CCOc1cc(OC(C)CC(C)(C)C)ncn1 (stereo not drawn) [present compound (7), 4-(2-butynyloxy)-6-(1,3,3-trimethylbutyloxy)pyrimidine] | 0
6 | CCC#CCOc1cc(OC(C)C(C)(C)F)ncn1 (stereo not drawn) [present compound (17), 4-(2-fluoro-1,2-dimethylpropyloxy)-6-(2-pentynyloxy)pyrimidine] | 0
7 | CC#CCOc1cc(OC(C)C2CC2)ncn1 (stereo not drawn) [present compound (2), 4-(2-butynyloxy)-6-(1-cyclopropylethoxy)pyrimidine] | 0
8 | CC#CCOc1cc(OC(C)C(C)(C)F)ncn1 (stereo not drawn) [present compound (14), 4-(2-butynyloxy)-6-(2-fluoro-1,2-dimethylpropyloxy)pyrimidine] | 0
9 | CC#CCOc1cc(OCC(C)(C)C)ncn1 [present compound (6), 4-(2-butynyloxy)-6-(2,2-dimethylpropyloxy)pyrimidine] | 0
10 | CC#CCOc1cc(OC(C)C(C)C)ncn1 (stereo not drawn) [present compound (12), 4-(2-butynyloxy)-6-(1,2-dimethylpropyloxy)pyrimidine] | 0
11 | CC#CCOc1cc(OC(C)C(Cl)Cl)ncn1 (stereo not drawn) [present compound (29), 4-(2-butynyloxy)-6-(2,2-dichloro-1-methylethyloxy)pyrimidine] | 0
12 | CC#CCOc1cc(OC(C)C(C)CC)ncn1 (stereo not drawn) [present compound (16), 4-(2-butynyloxy)-6-(1,2-dimethylbutyloxy)pyrimidine] | 0
13 | CCC#CCOc1cc(OCC(C)(C)Cl)ncn1 [present compound (40), 4-(2-pentynyloxy)-6-(2-chloro-2-methylpropyloxy)pyrimidine] | 0
14 | CC#CCOc1cc(OC(C)C(C)(C)Cl)ncn1 (stereo not drawn) [present compound (34), 4-(2-butynyloxy)-6-(2-chloro-1,2-dimethylpropyloxy)pyrimidine] | 0
15 | CC#CCOc1cc(OCCC(C)(C)C)ncn1 [present compound (11), 4-(2-butynyloxy)-6-(3,3-dimethylbutyloxy)pyrimidine] | 0
